What all share (format): cell-based
Data set [1] has as its system human epithelial HeLa cells. In words: HeLa cytotoxicity assay (CellTiter-Glo). Conditions: pCC50. The protocol: (§1) Compounds of the present invention were tested via high-throughput cellular assays utilizing detection of kynurenine via mass spectrometry and cytotoxicity as end-points. For the mass spectrometry and cytotoxicity assays, human epithelial HeLa cells (CCL-2; ATCC®, Manassas, Va.) were stimulated with human interferon-γ (IFN-γ) (Sigma-Aldrich Corporation, St. Louis, Mo.) to induce the expression of indoleamine 2, 3-dioxygenase (IDO1). Compounds with IDO1 inhibitory properties decreased the amount of kynurenine produced by the cells via the tryptophan catabolic pathway. Cellular toxicity due to the effect of compound treatment was measured using CellTiter-Glo® reagent (CTG) (Promega Corporation, Madison, Wis.), which is based on luminescent detection of ATP, an indicator of metabolically active cells.
(§2) In preparation for the assays, test compounds were serially diluted 3-fold in DMSO from a typical top concentration of 1 mM or 5 mM and plated at 0.5 μL in 384-well, polystyrene, clear bottom, tissue culture treated plates with lids (Greiner Bio-One, Kremsmünster, Austria) to generate 11-point dose response curves. Low control wells (0% kynurenine or 100% cytotoxicity) contained either 0.5 μL of DMSO in the presence of unstimulated (−IFN-γ) HeLa cells for the mass spectrometry assay or 0.5 μL of DMSO in the absence of cells for the cytotoxicity assay, and high control wells (100% kynurenine or 0% cytotoxicity) contained 0.5 μL of DMSO in the presence of stimulated (+IFN-γ) HeLa cells for both the mass spectrometry and cytotoxicity assays.
(§3) Frozen stocks of HeLa cells were washed and recovered in DMEM high glucose medium with HEPES (Thermo Fisher Scientific, Inc., Waltham, Mass.) supplemented with 10% v/v certified fetal bovine serum (FBS) (Thermo Fisher Scientific, Inc., Waltham, Mass.), and 1× penicillin-streptomycin antibiotic solution (Thermo Fisher Scientific, Inc., Waltham, Mass.). The cells were diluted to 100,000 cells/mL in the supplemented DMEM medium. 50 μL of either the cell suspension, for the mass spectrometry assay, or medium alone, for the cytotoxicity assay, were added to the low control wells, on the previously prepared 384-well compound plates, resulting in 5,000 cells/well or 0 cells/well respectively. IFN-γ was added to the remaining cell suspension at a final concentration of 10 nM, and 50 μL of the stimulated cells were added to all remaining wells on the 384-well compound plates. The plates, with lids, were then placed in a 37° C., 5% CO2 humidified incubator for 2 days.
(§4) Following incubation, the 384-well plates were removed from the incubator and allowed to equilibrate to room temperature for 30 minutes. For the cytotoxicity assay, CellTiter-Glo® was prepared according to the manufacturer's instructions, and 10 μL were added to each plate well. After a twenty minute incubation at room temperature, luminescence was read on an EnVision® Multilabel Reader (PerkinElmer Inc., Waltham, Mass.). For the mass spectrometry assay, 10 μL of supernatant from each well of the compound-treated plates were added to 40 μL of acetonitrile, containing 10 μM of an internal standard for normalization, in 384-well, polypropylene, V-bottom plates (Greiner Bio-One, Kremsmünster, Austria) to extract the organic analytes. Following centrifugation at 2000 rpm for 10 minutes, 10 μL from each well of the acetonitrile extraction plates were added to 90 μL of sterile, distilled H2O in 384-well, polypropylene, V-bottom plates for analysis of kynurenine and the internal standard on the RapidFire 300 (Agilent Technologies, Santa Clara, Calif.) and 4000 QTRAP MS (SCIEX, Framingham, Mass.). MS data were integrated using Agilent Technologies' RapidFire Integrator software, and data were normalized for analysis as a ratio of kynurenine to the internal standard. […]

Data set [2] addresses T1, indoleamine 2, 3-dioxygenase (IDO1) (Homo sapiens, UniProt P14902). In words: IDO1 HeLa RapidFire MS assay (kynurenine detection by mass spectrometry). Details: to induce the expression of indoleamine 2, 3-dioxygenase (IDO1). The conditions noted are these: HeLa cells, pIC50, read-out: IDO1_HELA_PXC50 (converted). Here is the method:
IDO1 HeLa RapidFire MS Assay
as §1, §2, §3, §4

Data set [3] deals with human peripheral blood mononuclear cells (PBMC). In words: PBMC cytotoxicity assay (CellTiter-Glo). The conditions noted are these: 2 days, pCC50. In outline:
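Human PBMC (50,000 cells/well) stimulated with IFN-γ 100 ng/ml and LPS 50 ng/ml were exposed to 11-point 3-fold compound dilutions for 2 days at 37 °C, 5% CO2. Viability read by CellTiter-Glo ATP luminescence and normalized to no-cell and stimulated-DMSO controls. XC50 derived by four-parameter fit.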
A general note: In ATP-based viability assays light output follows the ATP content of the culture.

Data set [4] addresses T1, indoleamine 2, 3-dioxygenase (IDO1). In words: IDO1 PBMC RapidFire MS assay (kynurenine detection by mass spectrometry). Details: to induce the expression of indoleamine 2, 3-dioxygenase (IDO1); host or cells: human PBMC stimulated with IFN-gamma and LPS. The conditions noted are these: human PBMC stimulated with IFN-γ and LPS, 2 days, pIC50, read-out: PBMC PXC50 (converted). In outline: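 PBMCs (50,000 cells/well) stimulated with IFN-γ 100 ng/ml plus LPS 50 ng/ml, treated with 11-point 3-fold compound series for 2 days at 37° C. Supernatant kynurenine measured by RapidFire MS, normalised to internal standard; parallel cytotoxicity by CellTiter-Glo luminescence; curves fitted for XC50.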

T1 sequence (P14902 whole entry): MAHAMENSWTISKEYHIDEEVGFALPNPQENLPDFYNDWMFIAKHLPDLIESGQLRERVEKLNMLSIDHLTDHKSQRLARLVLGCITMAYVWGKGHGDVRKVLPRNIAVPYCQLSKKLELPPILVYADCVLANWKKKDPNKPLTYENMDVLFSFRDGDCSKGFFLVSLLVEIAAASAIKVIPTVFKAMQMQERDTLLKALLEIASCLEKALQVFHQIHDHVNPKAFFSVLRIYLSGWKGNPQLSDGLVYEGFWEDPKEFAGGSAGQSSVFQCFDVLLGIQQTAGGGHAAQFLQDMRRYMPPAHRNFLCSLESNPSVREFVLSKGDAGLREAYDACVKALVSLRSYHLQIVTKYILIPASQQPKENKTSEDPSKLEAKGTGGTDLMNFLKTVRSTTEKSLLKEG

Molecule `CC(C)CN(CC(C)C)c1ccc(C(C)CC(=O)O)cc1Nc1nncs1` (stereo not drawn) [example 196, 3-{4-[bis(2-methylpropyl)amino]-3-[(1,3,4-thiadiazol-2-yl)amino]phenyl}butanoic acid] had an HELA_IDO1_TOX_PXC50 in data set [1] of under 5. In addition, the IC50 in data set [2] is 0.158 µM.

Regarding `CC(C)CN(c1ccc(C(C)CC(=O)O)cc1NC1CCN(C)CC1)C1CCCCC1` (stereo not drawn) [example 140, 3-{4-[cyclohexyl(2-methylpropyl)amino]-3-[(1-methylpiperidin-4-yl)amino]phenyl}butanoic acid], the HELA_IDO1_TOX_PXC50 in data set [1] is under 5. Also, in data set [2], the IC50 is 3.16 µM.

As for `CC(C)CN(CC(C)C)c1ccc(C(C)CC(=O)O)cc1Nc1c(Nc2ccccc2)c(=O)c1=O` (stereo not drawn) [example 124, 3-{4-[bis(2-methylpropyl)amino]-3-{(3,4-dioxo-2-(phenylamino)cyclobut-1-en-1-yl]amino}phenyl}butanoic acid], in data set [1], the HELA_IDO1_TOX_PXC50 is listed as under 4.3. Besides, the IC50 in data set [2] was 12.6 µM.

On to `CC(C)CN(CC(C)C)c1ccc(C(C)CC(=O)O)cc1Nc1ccc(NS(C)(=O)=O)cn1` (stereo not drawn) [example 200, 3-{4-[bis(2-methylpropyl)amino]-3-[(5-methanesulfonamido-pyridin-2-yl)amino]phenyl}butanoic acid], for which the HELA_IDO1_TOX_PXC50 in data set [1] is listed as under 5. Besides, the IC50 in data set [2] was over 10 µM.

`COCc1nnc(Nc2cc([C@H](C)CC(=O)O)ccc2N(CC(C)C)CC(C)C)[nH]1` [example 190, (3R)-3-{4-[bis(2-methylpropyl)amino]-3-{[5-(methoxymethyl)-4H-1,2,4-triazol-3-yl]amino}phenyl}butanoic acid] returned an HELA_IDO1_TOX_PXC50 in data set [1] of under 5. In addition, the IC50 in data set [2] is 0.0794 µM.

As to `CC(C)CN(CC(C)C)c1ccc(C(C)CC(=O)O)cc1Nc1nc(C(C)(C)C)cs1` (stereo not drawn) [example 133, 3-{4-[bis(2-methylpropyl)amino]-3-[(4-tert-butyl-1,3-thiazol-2-yl)amino]phenyl}butanoic acid], in data set [1], the HELA_IDO1_TOX_PXC50 came to 4.5. The IC50 in data set [2] was 3.98 µM.

In data set [1], `CC(C)CN(CC(C)C)c1ccc(C(C)CC(=O)O)cc1Nc1nc2c(s1)CCCC2` (stereo not drawn) [example 131, 3-{4-[bis(2-methylpropyl)amino]-3-[(4,5,6,7-tetrahydro-1,3-benzothiazol-2-yl)amino]phenyl}butanoic acid] showed an HELA_IDO1_TOX_PXC50 of 4.7. For the same molecule, the IC50 in data set [2] was 0.631 µM.

`CC(C)CN(c1ccc(-c2ccccc2C(=O)O)cc1Nc1nc(C(F)(F)F)ns1)C1CCN(CCO)CC1` [example 271, 4′-{[1-(2-hydroxyethyl)piperidin-4-yl](2-methylpropyl)amino}-3′-{[3-(trifluoromethyl)-1,2,4-thiadiazol-5-yl]amino}-[1,1′-biphenyl]-2-carboxylic acid]: the HELA_IDO1_TOX_PXC50 in data set [1] is under 5. The IC50 in data set [2] is 6.31 µM.

`CC(C)CN(c1ccc(-c2cnn(C)c2C(=O)O)cc1Nc1nc2ccccc2o1)C1CCCCC1` [example 178, 4-{3-[(1,3-benzoxazol-2-yl)amino]-4-[cyclohexyl(2-methylpropyl)amino]phenyl}-1-methyl-1H-pyrazole-5-carboxylic acid] registered an HELA_IDO1_TOX_PXC50 in data set [1] of under 5. In addition, the IC50 in data set [2] is 3.16 µM.

As for `CC(C)CN(CC(C)C)c1ccc(C(C)CC(=O)O)cc1Nc1noc(-c2ccccc2)n1.O=C(O)C(F)(F)F` (stereo not drawn) [example 122, 3-{4-[bis(2-methylpropyl)amino]-3-[(5-phenyl-1,2,4-oxadiazol-3-yl)amino]phenyl}butanoic acid], the HELA_IDO1_TOX_PXC50 in data set [1] is on record as under 4.3. The IC50 in data set [2] is 25.1 µM.

In turn, `CC(C)CN(c1ccc(C(C)CC(=O)O)cc1NCc1c[nH]cn1)C1CCCCC1` (stereo not drawn) [example 159, 3-{4-[cyclohexyl(2-methylpropyl)amino]-3-{[(1H-imidazol-4-yl)methyl]amino}phenyl} butanoic acid] came in with an HELA_IDO1_TOX_PXC50 in data set [1] of under 5. The “PBMC TOX PXC50” value in data set [3] is recorded as under 5. In addition, the IC50 in data set [4] is 5.01 µM.

Regarding `CC(C)CN(c1ccc(-c2c[nH]nc2C(=O)O)cc1Nc1nc2ccccc2o1)C1CCCCC1` [example 175, 4-{3-[(1,3-benzoxazol-2-yl)amino]-4-[cyclohexyl(2-methylpropyl)amino]phenyl}-1H-pyrazole-3-carboxylic acid], in data set [1], the HELA_IDO1_TOX_PXC50 is recorded as under 5. In addition, the IC50 in data set [2] is 5.01 µM.

In the case of `CC(C)CN(c1ccc(C(C)OCC(=O)O)cc1Nc1ccc(C(N)=O)cn1)C1CCCCC1` (stereo not drawn) [example 201, 2-(1-{3-[(5-carbamoylpyridin-2-yl)amino]-4-[cyclohexyl(2-methylpropyl)amino]phenyl}ethoxy)acetic acid], the HELA_IDO1_TOX_PXC50 in data set [1] was under 5. Also, the IC50 in data set [2] was over 10 µM.

In the case of `CC(C)CN(CC(C)C)c1ccc(C(C)CC(=O)O)cc1Nc1nc(N2CCC2)ns1` (stereo not drawn) [example 120, 3-(3-{[3-(azetidin-1-yl) 1,2,4-thiadiazol-5-yl]amino}-4-[bis(2-methylpropyl)amino]phenyl)butanoic acid], in data set [1], the HELA_IDO1_TOX_PXC50 is on record as under 4.3. Further, the “PBMC TOX PXC50” value in data set [3] worked out at 4.7.

As to `COCc1nnc(Nc2cc([C@H](C)CC(=O)O)ccc2N(CC(C)C)C2CCOCC2)s1` [example 216, (3R)-3-(3-{[5-(methoxymethyl)-1,3,4-thiadiazol-2-yl]amino}-4-[(2-methylpropyl)(oxan-4-yl)amino]phenyl)butanoic acid], the “PBMC TOX PXC50” value in data set [3] is recorded as under 5. Further, the IC50 in data set [2] is 0.0501 µM; in data set [4] it was 0.0398 µM.

As to `CC(C)CN(c1ccc(/C=C/C(=O)O)cc1Nc1nc2ccccc2o1)C1CCCCC1` [example 137, (2E)-3-{3-[(1,3-benzoxazol-2-yl)amino]-4-[cyclohexyl(2-methylpropyl)amino]phenyl}prop-2-enoic acid], the HELA_IDO1_TOX_PXC50 in data set [1] is listed as under 5.

Turning to `CC(C)CN(CC(C)C)c1ccc(C(C)CC(=O)O)cc1Nc1nnc(-c2ccccc2)o1.O=C(O)C(F)(F)F` (stereo not drawn) [example 123, 3-{4-[bis(2-methylpropyl)amino]-3-[(5-phenyl-1,3,4-oxadiazol-2-yl)amino]phenyl}butanoic acid], in data set [1], the HELA_IDO1_TOX_PXC50 was under 4.3.

Take `CC(C)CN(CC(C)C)c1ccc([C@@H]2C[C@@H]2C(=O)O)cc1Nc1nc(C(F)(F)F)ns1` (single isomer, unassigned) [example 209]: the “PBMC TOX PXC50” value in data set [3] is under 5. In addition, the values for the IC50 in data set [2] and in data set [4] were 0.02 µM and 0.0501 µM, respectively.

`CO[C@H]1CC[C@H](N(CC(C)C)c2ccc([C@H](C)CC(=O)O)cc2Nc2ccc(C#N)cn2)CC1` [Example 56, (R)-3-(3-((5-cyanopyridin-2-yl)amino)-4-(isobutyl((1r,4R)-4-methoxycyclohexyl)amino)phenyl)butanoic Acid]: the “PBMC TOX PXC50” value in data set [3] is under 5. The IC50 in data set [4] is 0.00398 µM.
